Positions of bridges follow the written chain, without caps; N, C: chain ends. No end group written: not given here.
System: IL-6 production in primary human mesangial cells
Assay: ET-1 induced IL-6 production in HRMCs (ELISA)
Type: cell-based

## ET-1: endothelin 1 (ET-1), used to stimulate primary human mesangial cells (CSCSSLMDKECVYFCHLDIIW; disulfide 1-15, 3-11; ends not checked; UniProt P05305 53-73, looked up)
48 hours
  increase in IL-6 production by primary human mesangial cells exposed to ET-1: ~6 fold
72 hours
  increase in IL-6 production by primary human mesangial cells exposed to ET-1: ~2.2 fold

Source: patent US20220304978A1, “INHIBITING MESANGIAL CELL ACTIVATION” (Chinook Therapeutics, Inc., priority 2019, published 2022)
